Counter-ions that a name gives are not always drawn.
Assay: Solubility determination of bulk substance in test solutions of various pH (37° C., 1 hour)
Type: physicochemical
Conditions: for solubility at 1 h: test solution
Description: Emonapride hydrochloride (0.05-5 g) was added to 10 ml portions of test solutions of various pH and each mixture was shaken at 37° C. for 1 hour, at the end of which it was filtered through Nucripore Membrane (pore size 0.6 μm). A definite portion of the filtrate was taken out and diluted with acetate buffer (pH 3.0) for use as a sample solution.
Separately, about 0.1 g of emonapride hydrochloride was accurately weighed out and dissolved in methanol to make exactly 100 ml. One milliliter portion of this solution was accurately taken out and diluted with acetate buffer (pH 3.0) to make exactly 100 ml for use as the standard solution. For each of the test solution and the standard solution, the absorbance at 313 nm was measured by absorption spectrometry and the solubility was determined.
In the preparation of the test solutions, JP Test Solution 1 was used for pH 1.2, acetate buffer (S.phi.rensen buffer) for pH 2.0-5.0, phosphate buffer (Clark-Lubs buffer) for pH 6.0-7.6 and JP Test Solution 2 for pH 6.8.

Row | SMILES | solubility (statement in the description) (conditions over pH 4) | solubility change with pH (as the pH exceeded 4, 37° C.) | pH dependence of dissolution (bulc substance, from solubility at various pH) | solubility at 1 h (pH≤4, 37° C.) [µg/mL] | solubility at 1 h (pH≥6.8, 37° C.) [µg/mL]
1 | CNc1cc(OC)c(C(=O)NC2CCN(Cc3ccccc3)C2C)cc1Cl (centres unmarked) [Emonapride, N-(1-Benzyl-2-methylpyrrolidin-3-yl)-5-chloro-2-methoxy-4-methylaminobenzamide] | drastically insoluble |  |  |  | 
2 | CNc1cc(OC)c(C(=O)NC2CCN(Cc3ccccc3)C2C)cc1Cl (centres unmarked) [emonapride hydrochloride] |  | decreased sharply | pH-dependent | ≥ 5000 | ≤ 10

Reference: patent US5624687A, “Quick-dissolution solid preparation” (Yamanouchi Pharmaceutical Co., Ltd., priority 1991, dated 1997)
